Source: PubChem BioAssay (NCI)
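The compound was tested at five concentrations on cells cultured in 96-well plates, with a 48-hour exposure period. TGI denotes the concentration required for complete inhibition of growth.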

Tests used:
Assay in all cases: NCI anticancer screen, dose series, 48 h
M14 melanoma = test system: M14 melanoma
U251 CNS = test system: U251 CNS
MDA-MB-231 breast = test system: MDA-MB-231 breast
RXF 393 renal = test system: RXF 393 renal
BT-549 breast = test system: BT-549 breast
T-47D breast = test system: T-47D breast
KM12 colon = test system: KM12 colon
A549 NSCLC = test system: A549 NSCLC
786-0 renal = test system: 786-0 renal
PC-3 prostate = test system: PC-3 prostate
SW-620 colon = test system: SW-620 colon
RPMI-8226 leukemia = test system: RPMI-8226 leukemia
SK-MEL-28 melanoma = test system: SK-MEL-28 melanoma
SK-MEL-5 melanoma = test system: SK-MEL-5 melanoma
OVCAR-3 ovarian = test system: OVCAR-3 ovarian
HCT-15 colon = test system: HCT-15 colon
CCRF-CEM leukemia = test system: CCRF-CEM leukemia
MALME-3M melanoma = test system: MALME-3M melanoma
K-562 leukemia = test system: K-562 leukemia
OVCAR-5 ovarian = test system: OVCAR-5 ovarian
IGROV1 ovarian = test system: IGROV1 ovarian
HCC-2998 colon = test system: HCC-2998 colon
LOX IMVI melanoma = test system: LOX IMVI melanoma
SF-539 CNS = test system: SF-539 CNS
SF-268 CNS = test system: SF-268 CNS
SN12C renal = test system: SN12C renal
COLO 205 colon = test system: COLO 205 colon
SNB-75 CNS = test system: SNB-75 CNS
A498 renal = test system: A498 renal
MOLT-4 leukemia = test system: MOLT-4 leukemia
SF-295 CNS = test system: SF-295 CNS
UO-31 renal = test system: UO-31 renal
OVCAR-8 ovarian = test system: OVCAR-8 ovarian
CAKI-1 renal = test system: CAKI-1 renal
MDA-MB-435 = test system: MDA-MB-435
UACC-257 melanoma = test system: UACC-257 melanoma
NCI-H460 lung = test system: NCI-H460 lung
HS 578T breast = test system: HS 578T breast
OVCAR-4 ovarian = test system: OVCAR-4 ovarian
NCI-H522 lung = test system: NCI-H522 lung
TK-10 renal = test system: TK-10 renal
HL-60(TB) leukemia = test system: HL-60(TB) leukemia
SK-MEL-2 melanoma = test system: SK-MEL-2 melanoma
NCI-H226 lung = test system: NCI-H226 lung
MCF7 breast = test system: MCF7 breast
MDA-N = test system: MDA-N
HOP-92 NSCLC = test system: HOP-92 NSCLC
SR leukemia = test system: SR leukemia
NCI/ADR-RES ovarian = test system: NCI/ADR-RES ovarian
SNB-19 CNS = test system: SNB-19 CNS
NCI-H23 lung = test system: NCI-H23 lung
HCT-116 colon = test system: HCT-116 colon
DU-145 prostate = test system: DU-145 prostate
EKVX NSCLC = test system: EKVX NSCLC
SK-OV-3 ovarian = test system: SK-OV-3 ovarian
HT29 colon = test system: HT29 colon
ACHN renal = test system: ACHN renal
HOP-62 NSCLC = test system: HOP-62 NSCLC
UACC-62 melanoma = test system: UACC-62 melanoma
M19-MEL melanoma = test system: M19-MEL melanoma
HOP-18 NSCLC = test system: HOP-18 NSCLC
DMS 273 small cell lung = test system: DMS 273 small cell lung
DLD-1 colon = test system: DLD-1 colon
DMS 114 small cell lung = test system: DMS 114 small cell lung
SNB-78 CNS = test system: SNB-78 CNS
LXFL 529 NSCLC = test system: LXFL 529 NSCLC

With `O=C1c2ccccc2-c2c1c1ccccc1c(=O)n2CCO` the TGI (M14 melanoma) was greater than 100 µM, the TGI (U251 CNS) was greater than 100 µM and the TGI (MDA-MB-231 breast) was greater than 100 µM. For the same compound, the TGI (RXF 393 renal) was greater than 100 µM, the TGI (BT-549 breast) was greater than 100 µM and the TGI (T-47D breast) was greater than 100 µM. It also gave a TGI (KM12 colon) greater than 100 µM, a TGI (A549 NSCLC) greater than 100 µM and a TGI (786-0 renal) greater than 100 µM. It also gave a TGI (PC-3 prostate) greater than 100 µM, a TGI (SW-620 colon) greater than 100 µM and a TGI (RPMI-8226 leukemia) greater than 100 µM. For the same compound, the TGI (SK-MEL-28 melanoma) was greater than 100 µM, the TGI (SK-MEL-5 melanoma) was 33.1 µM and the TGI (OVCAR-3 ovarian) was greater than 100 µM. It also gave a TGI (HCT-15 colon) greater than 100 µM, a TGI (CCRF-CEM leukemia) greater than 100 µM and a TGI (MALME-3M melanoma) greater than 100 µM. It also gave a TGI (K-562 leukemia) greater than 100 µM, a TGI (OVCAR-5 ovarian) greater than 100 µM and a TGI (IGROV1 ovarian) greater than 100 µM. For the same compound, the TGI (HCC-2998 colon) was greater than 100 µM, the TGI (LOX IMVI melanoma) was greater than 100 µM and the TGI (SF-539 CNS) was greater than 94.1 µM. It also gave a TGI (SF-268 CNS) greater than 100 µM, a TGI (SN12C renal) greater than 100 µM and a TGI (COLO 205 colon) greater than 100 µM. For the same compound, the TGI (SNB-75 CNS) was greater than 81 µM, the TGI (A498 renal) was greater than 100 µM and the TGI (MOLT-4 leukemia) was 9.36 µM. For the same compound, the TGI (SF-295 CNS) was greater than 96.3 µM, the TGI (UO-31 renal) was greater than 81 µM and the TGI (OVCAR-8 ovarian) was greater than 100 µM. The TGI (CAKI-1 renal) was greater than 51.7 µM, the TGI (MDA-MB-435) was greater than 100 µM and the TGI (UACC-257 melanoma) was greater than 100 µM. It also gave a TGI (NCI-H460 lung) of 11.3 µM, a TGI (HS 578T breast) greater than 100 µM and a TGI (OVCAR-4 ovarian) greater than 100 µM. The TGI (NCI-H522 lung) was greater than 100 µM, the TGI (TK-10 renal) was greater than 100 µM and the TGI (HL-60(TB) leukemia) was 7.29 µM. The TGI (SK-MEL-2 melanoma) was 87.2 µM, the TGI (NCI-H226 lung) was greater than 38.1 µM and the TGI (MCF7 breast) was greater than 100 µM. It also gave a TGI (MDA-N) greater than 100 µM, a TGI (HOP-92 NSCLC) greater than 71.6 µM and a TGI (SR leukemia) of 22.5 µM. The TGI (NCI/ADR-RES ovarian) was greater than 100 µM, the TGI (SNB-19 CNS) was greater than 100 µM and the TGI (NCI-H23 lung) was greater than 61.9 µM. The TGI (HCT-116 colon) was greater than 79.3 µM, the TGI (DU-145 prostate) was greater than 100 µM and the TGI (EKVX NSCLC) was greater than 100 µM. It also gave a TGI (SK-OV-3 ovarian) greater than 100 µM, a TGI (HT29 colon) greater than 100 µM and a TGI (ACHN renal) of 10.4 µM. It also gave a TGI (HOP-62 NSCLC) of 32.5 µM and a TGI (UACC-62 melanoma) greater than 59.5 µM.
`CC(=O)Oc1cc(OC(C)=O)c2c(=O)c3ccccc3n(C)c2c1` gave a TGI (RXF 393 renal) of 75.2 µM, a TGI (M19-MEL melanoma) of 52.2 µM and a TGI (KM12 colon) greater than 100 µM. It also gave a TGI (A549 NSCLC) greater than 100 µM, a TGI (SK-MEL-28 melanoma) of 59.9 µM and a TGI (SK-MEL-5 melanoma) of 29.7 µM. The TGI (OVCAR-3 ovarian) was greater than 100 µM, the TGI (HCT-15 colon) was greater than 100 µM and the TGI (MALME-3M melanoma) was 48.8 µM. It also gave a TGI (HOP-18 NSCLC) of 57.1 µM, a TGI (IGROV1 ovarian) of 68.4 µM and a TGI (DMS 273 small cell lung) greater than 100 µM. For the same compound, the TGI (DLD-1 colon) was 91.3 µM, the TGI (LOX IMVI melanoma) was 28.1 µM and the TGI (SF-539 CNS) was 42.2 µM. It also gave a TGI (SF-268 CNS) of 76.5 µM, a TGI (DMS 114 small cell lung) of 96.5 µM and a TGI (SN12C renal) of 88.2 µM. It also gave a TGI (SNB-75 CNS) of 76.3 µM, a TGI (SNB-78 CNS) of 84.3 µM and a TGI (MOLT-4 leukemia) greater than 100 µM. It also gave a TGI (SF-295 CNS) of 44.2 µM, a TGI (LXFL 529 NSCLC) greater than 100 µM and a TGI (UO-31 renal) of 53.8 µM. The TGI (OVCAR-8 ovarian) was 64.4 µM, the TGI (UACC-257 melanoma) was 84.1 µM and the TGI (NCI-H460 lung) was 67.5 µM. For the same compound, the TGI (OVCAR-4 ovarian) was greater than 100 µM, the TGI (NCI-H522 lung) was 52.8 µM and the TGI (TK-10 renal) was greater than 100 µM. The TGI (SK-MEL-2 melanoma) was 97.1 µM, the TGI (NCI-H226 lung) was 40.5 µM and the TGI (SNB-19 CNS) was greater than 100 µM. The TGI (NCI-H23 lung) was 77.6 µM, the TGI (HCT-116 colon) was 74.7 µM and the TGI (SK-OV-3 ovarian) was 59.8 µM. The TGI (HT29 colon) was 64.5 µM, the TGI (ACHN renal) was 65.1 µM and the TGI (UACC-62 melanoma) was greater than 100 µM.
